The subject of one experiment is APTK organoids. The experiment in a line: APTK tumor organoids treated with UA (lysosomes, mitochondria, MHC-I by flow cytometry). In kind it is cell-based, mouse. As to conditions: increasing concentrations of UA. The procedure:
APTK colorectal organoids which harbor mutations for Apc, Trp53 and Tgfbr2 as well as expression of oncogenic KraSG12D were established and maintained as previously described (Nicolas et al., 2022; Varga et al., 2020). APTK organoids were seeded in 6 wells suspension plates: 6 droplets of 50 l Matrigel (Corning) per well were used. To generate OVA-APTK, colon organoids were isolated from unchallenged OVA mice (The Jackson Laboratory) as previously described (Nicolas et al., 2022). Liposomes CRISPR/Cas9 technology-based transfection was used for targeted knockout of the following mutated colorectal cancer-related genes: Apc (gRNA: […])(SEQ ID NO:1), Trp53 gRNA: […]) (SEQ ID NO:2), and Tgfbr2 (gRNA: […]) (SEQ ID NO:3) as previously described (Schwank and Clevers, 2016). Cas9 plasmid (Addgene; #41815) was used along gRNA plasmids generated from addgene #41819 plasmid by cloning the gRNA of interest instead of GFP targeting gRNA. Firstly, Apc knockout (A) organoids were functionally selected by the withdrawal of R-spondin from the culture medium. Secondly, Apc Trp53 (AT) knockout organoids were selected for Trp53 loss with 5 μM of MDM2 inhibitor (Nutlin-3) (Biomole, cat no. 10004372). Thirdly, Apc Trp53 Tgfbr2 (APT) knockout organoids were selected with […] recombinant TGFβ (R&D Systems; 7666-MB). Finally, KrasG12D gain of function mutation was obtained by overexpressing the active murine version of Kras gene (cloned in house based on Addgene plasmid #111164, Map-S5) in APT organoids. Apc, Trp53, Tgfbr2 and KrasG12D (APTK) OVA organoids were selected by 2 μg/mL puromycin (Merck; 58-58-2) and withdrawal of EGF and noggin from the culture medium. In order to study the effect of UA on lysosome formation, mitochondria reduction as well as antigen presentation, organoids were treated with 25-50 μM UA for 24-48 h. Organoids were subsequently stained with a MHC-I antibody (AF6-88.5; 116516; BioLegend), Mitotracker Deep Red (250 nm; ThermoFisher) and Lysotracker Red DND-99 (75 nM; ThermoFisher).
A general note: In flow cytometry, cells or beads pass a laser one at a time.

In experiment [1] the test system is cortical neurons and microglial cells injured with Aβ1-42. The experiment can be described thus: Rat primary culture of cortical neurons and microglial cells injured with Aβ1-42. Format: cell-based. As for the experimental part:
Pregnant female rat (Wistar) of 15 days of gestation were killed using a deep anesthesia with CO2 chamber and a cervical dislocation. Fetuses were collected and immediately placed in ice-cold L15 Leibovitz medium with a 2% penicillin (10,000 U/mL) and streptomycin (10 mg/mL) solution (PS) and 1% bovine serum albumin (BSA). Cortex were specifically dissected and then were treated for 20 min at 37° C. with a trypsin-EDTA solution at a final concentration of 0.05% trypsin and 0.02% EDTA. The dissociation was stopped by addition of Dulbecco's modified Eagle's medium (DMEM) with 4.5 g/L of glucose, containing DNAse I grade II (final concentration 0.5 mg/mL) and 10% fetal calf serum (FCS). Cells were mechanically dissociated by three forced passages through the tip of a 10-mL pipette. Cells were then centrifuged at 515×g for 10 min at 4° C. The supernatant was discarded, and the pellet was resuspended in a defined culture medium consisting of Neurobasal medium with a 2% solution of B27 supplement, 2 mmol/liter of L-glutamine, 2% of PS solution, 10 ng/mL of brain-derived neurotrophic factor (BDNF), 2% of heat-inactivated horse serum, 2% of heat-inactivated FCS, 1 g/L of glucose, 1 mM of sodium pyruvate, and 100 μM of non-essential amino acids. The presence of serum in the medium allows the growth of the microglial cells. Viable cells were counted in a Neubauer cytometer, using the trypan blue exclusion test.
The cells were seeded at a density of 45 000 per well in 96-well plate precoated with poly-L-lysine and were cultured at 37° C. in an air (95%)—CO2 (5%) incubator. The medium was changed every 2 days.
On day 11 of culture, the compounds were dissolved in the appropriate vehicle and pre-incubated with the primary cortical neurons for one hour (1 h), before Aβ1-42 exposure.
On day 11 of culture, the cortical neurons were injured with the AP 1-42 peptide. AP 1-42 peptide was dissolved in the defined culture medium mentioned above, at an initial concentration of 20 μM. The solution was gently agitated for 3 days at 37° C. in the dark and immediately used after being properly diluted in culture medium to the concentration used (5 μM, 0.5 μM oligomers precisely evaluated by automatic WB). The AP 1-42 solution was applied on the culture at […] (0.5 μM oligomers, AβO), in presence of the compound, for 72 hours.
72 hours after the application of Aβ, the cell culture supernatant was removed. Cells were then washed with phosphate-buffered saline (PBS) and fixed with a cold solution of ethanol (95%) and acetic acid (5%) for 5 min at −20° C. After two washing steps with cold PBS, cells permeabilized and unspecific binding sites were blocked with a solution of PBS containing 0.1% of saponin and 1% of FCS, for 15 min at RT. Cells were incubated for 2 hours with: • a) Monoclonal anti-MAP2 antibody produced in mouse at dilution of 1/400 in PBS containing 1% FCS, 0.1% saponin, for 2 hours at room temperature. • b) Rabbit polyclonal antibody anti-SIRP alpha/CD172a (OX-41) at dilution of 1/400 in PBS containing 1% fetal calf serum and 0.1% of saponin (this antibody stains specifically the microglia and will allow to evaluate the activation of the microglial cells).
For each condition, 30 pictures (representative of the whole well area) were automatically taken using ImageXpress® (Molecular Devices) at 20× magnification using the same acquisition parameters. From images, the analyses were automatically performed by MetaXpress® (Molecular Devices). The following read-outs were measured: • Total neuron survival (number of MAP-2(+) neurons), • Total length of neurite network of MAP-2(+) neurons (in μm) • Total area of activated microglia (area of OX-41 signal, in μm^2)
All values are expressed as mean+/−SEM (standard error of the mean). Statistical analysis was performed by one-way ANOVA followed by Fisher's LSD test, with GraphPad Prism. p<0.05 was considered significant.

[2] abbreviates: 123 and 370 nM, Aβ1-42 72 hours.

In the case of `O=c1oc2cc(O)ccc2c2ccc(O)cc12` [UA, Urolithin A], in the experiment with APTK organoids, the MitoTracker staining result is “loss of MitoTracker staining” and the “formation of lysosomes (lysotracker)” value is reported as “dose-dependent formation of lysosomes”. In the experiment with APTK organoids (48 hours), the MHC-I expression result was “marked upregulation”.
In the case of `O=c1oc2cc(O)ccc2c2ccc(OC3CCOCC3)cc12` [compound 33, 3-hydroxy-8-((tetrahydro-2H-pyran-4-yl)oxy)-6H-benzo[c]chromen-6-one], in experiment [1], the “microglial activation (conclusion)” value was “significantly reduce” and the “neuroprotection in the inflammatory in vitro model (conclusion)” value is “neuroprotective”. In experiment [1] (setting [2]), the “neurite network of cortical neurons (MAP-2)” value is “significantly protect” and the “survival of cortical neurons (MAP-2)” value is recorded as “significantly protect”. For the same compound, in experiment [1] (between 41.1 nM and 370 nM, Aβ1-42 72 hours), the “microglial activation (OX-41)” value is “significant decrease”.

Values taken from US20240139149A1, “THERAPEUTIC USES OF UROLITHIN DERIVATIVES” (Vandria SA, priority 2022, published 2024).
